Test results: PMC12040169 (PLOS Biology, 2025)

assay: in vitro; conditions: human, hela cells, % viability

Row | Structure (SMILES) | viability at 28.5 h, 10 µM
1 | Cc1ccc(C(=O)NC2CCN(C(=O)Nc3cc(Cl)ccc3F)CC2)s1 [CBK305243] | 88.8%
2 | C=CCNC(=O)CSc1nc(O)cc(=O)[nH]1 [CBK073298] | 104%
3 | O=C(CN1CCN(Cc2ccc3c(c2)OCO3)CC1)Nc1ccc(SC(F)(F)F)cc1 [CBK074385] | 108%
4 | OCCOc1ccccc1-c1cc[nH]n1 [CBK001973] | 104%
5 | C=CCNc1nccnc1-c1ccccc1OC [CBK036831] | 106%
6 | CN(C)Cc1ccccc1-n1ncc(CN2CCS(=O)(=O)CC2)n1 [CBK112877] | 107%
7 | COc1ccc(-c2csc(CC(=O)O)n2)cc1 [CBK159469] | 85.4%
8 | C=CCOc1cccc(CNc2nn[nH]n2)c1 [CBK267618] | 109%
9 | O=c1[nH]c2ccccc2cc1CNc1ccc(F)cc1F [CBK281933] | 84.1%
10 | CC(=O)c1cc(CN(C)C(C)c2ccncn2)cs1 (centres unmarked) [CBK307470] | 85.5%
11 | C=C(C)CNC(=O)c1ccc(C)nc1N1CCN(C(=O)c2ccco2)CC1 [CBK076401] | 94.8%
12 | COC(=O)c1cc(C#N)c(=O)n(CC(O)COCc2ccco2)c1 (centres unmarked) [CBK305718] | 94.7%
13 | CN(Cc1nc2c(s1)CCCC2)C(=O)COc1ncnc2ccccc12 [CBK307151] | 90.7%
14 | CCN(CC)C(=O)c1[nH]c2ccccc2c1NS(=O)(=O)c1ccc(F)cc1 [CBK050105] | 94.1%
15 | O=C(CCCn1ccnc1)NCC1(c2cccc(F)c2)CCCC1 [CBK281500] | 88.5%
16 | Cc1nc2c(c(=O)[nH]1)CN(Cc1cc(F)ccc1F)CC2 [CBK283953] | 86.9%
17 | CC1CCN(C(=O)CC(NC(N)=O)c2cccc(Br)c2)CC1 (centres unmarked) [CBK305788] | 95.3%
18 | CC(=O)Nc1ccc(NC(=O)COc2c(C)cc(Br)cc2C)cc1 [CBK267321] | 101%
19 | O=C(c1cn2ccccc2n1)N1CCC(c2ccccc2)C1 (centres unmarked) [CBK281850] | 104%
20 | NC(=O)c1ccccc1NC(=O)c1ccc2ccccc2c1 [CBK261171] | 90.8%
21 | Oc1ccc(/C=N/Nc2nnn[nH]2)c(O)c1 [CBK260972] | 99%
22 | CC1Cc2cc(C(O)CN3CCC4CCCCC4C3)ccc2N1S(C)(=O)=O (centres unmarked) [CBK286456] | 116%

Row | Structure (SMILES) | viability at 28.5 h, 10 µM
23 | CCOC(=O)c1sc(-c2ccc3c(c2)OCO3)nc1O [CBK078565] | 97.2%
24 | CC(C)CC1C(C#N)=C(N)Oc2[nH]nc(-c3cccs3)c21 (centres unmarked) [CBK267449] | 104%
25 | Cc1cc(C)cc(NC2=N[C@H]3[C@@H](O)[C@H](O)C[C@H](C(=O)N4CCCCC4)[C@H]3S2)c1 [CBK288952] | 90%
26 | CCN1CCN(c2ncnc3c2cnn3-c2cccc(C)c2)CC1 [CBK265814] | 93.8%
27 | CCCc1cc(C(=O)OC)c(NC(=O)C2C3CCC(C3)C2C(=O)O)s1 (centres unmarked) [CBK057885] | 98.5%
28 | O=C(COC(=O)C1CCC(N2C(=O)c3ccccc3C2=O)CC1)c1ccc(-c2ccccc2)cc1 (centres unmarked) [CBK264789] | 90.4%
29 | Cn1c(N2CC[C@H](O)C2)nc2cc(C(=O)NCC3CC3)ccc21 [CBK307164] | 92.1%
30 | Cc1n[nH]c2c1C(c1ccc(C(=O)O)cc1)C1=C(COC1=O)N2 (centres unmarked) [CBK286546] | 94.7%
31 | Cc1ccc(C2CCC(C(=O)O)C(C(=O)O)C2)cc1C (centres unmarked) [CBK287184] | 98.2%
32 | Cc1ccc(S(=O)(=O)c2ccc(C)c(S(=O)(=O)NC3CCCCC3)c2)cc1S(=O)(=O)NC1CCCCC1 [CBK261653] | 90%
33 | Cc1ccc(S(=O)(=O)N2C(=O)CCC2C(=O)O/N=C(\N)c2cccnc2)cc1 (centres unmarked) [CBK266864] | 111%
34 | CCc1nnc(NC(=O)c2cc(OC)c(OC)c(OC)c2)s1 [CBK058342] | 93.1%
35 | Cc1nn(C)c(C)c1CN(C)C(=O)CCC1CCCO1 (centres unmarked) [CBK283078] | 99.7%
36 | CCn1c2ccccc2c2cc(NC(=O)CSc3nnc(-c4ccoc4C)o3)ccc21 [CBK269010] | 105%
37 | O=c1[nH]c2ncc(-c3ccccc3)nc2n1CCCN1CCOCC1 [CBK064805] | 111%
38 | COCCNc1nc2c(c(N3CCSCC3)n1)CCNCC2 [CBK307510] | 111%
39 | C#CCNC(=O)C1CCCN(c2nc3ccccc3n2C)C1 (centres unmarked) [CBK282336] | 89.6%
40 | COc1ccccc1-c1cccc(C2CCCN(C(=O)Cc3c[nH]c4ccccc34)C2)n1 (centres unmarked) [CBK286143] | 100%
41 | C=CCn1c2cc(C)sc2c2cnn(CC(=O)OCC)c(=O)c21 [CBK284165] | 82.9%
42 | CC1CCN(C(=O)COC(=O)c2cnc(-c3ccncc3)s2)CC1 [CBK306255] | 94.6%
43 | NC(=O)c1ccccc1NC(=O)CSc1nc(N)cc(N)n1 [CBK267983] | 115%
44 | CC(=O)Nc1cccc(OCC(=O)Nc2ccc(C)c(C)c2)c1 [CBK265429] | 95.9%

Row | Structure (SMILES) | viability at 28.5 h, 10 µM
45 | COc1cc(Nc2nc(-c3cccc(C(=O)NCCN(C)C)c3)cn3ccnc23)cc(OC)c1OC [CBK066250] | 89%
46 | C/C(=N\N=C1\N=C(O)C(CC(=O)O)S1)c1ccco1 (centres unmarked) [CBK021973] | 96.8%
47 | CCN(CC)CCN(C(=O)NCCc1c[nH]c2ccc(OC)cc12)C(C)c1ccc(OC)c(OC)c1 (centres unmarked) [CBK158948] | 90.4%
48 | CCn1cc(CC(=O)Nc2cccc(-n3cnnc3)c2)c2ccccc21 [CBK282669] | 66.4%
49 | CC12CN3CC(C)(CN(C1)C3c1ccc(Br)cc1)C2=O (centres unmarked) [CBK261452] | 92.1%
50 | COc1ccc([N+](=O)[O-])cc1Nc1nc(-c2ccccc2)nc2ccccc12 [CBK265913] | 95.4%
51 | N#Cc1sc(N)c2ccc(-c3ccncc3)nc12 [CBK019761] | 105%
52 | O=C1CC(c2cc(F)ccc2F)c2c(-c3ccc(Cl)cc3)n[nH]c2N1 (centres unmarked) [CBK288000] | 110%
53 | Clc1ccc(CN2CCC(Oc3cncc(OCc4cccnc4)n3)C2)cc1 (centres unmarked) [CBK084451] | 104%
54 | COc1ccc(C(=O)N2CCC3(CCN(Cc4cc(=O)[nH]c(=O)[nH]4)C3)C2)cc1OC (centres unmarked) [CBK132162] | 108%
55 | O=C(O)C12CC3CC(C(=O)O)(C1)CC(C(=O)O)(C3)C2 [CBK263442] | 84.4%
56 | Cc1ccc(S(=O)(=O)NC(=O)N2CCCC2)cc1 [CBK001984] | 87.3%
57 | O=C(C1CCCC1)N1CC(n2nc(-c3cccs3)ccc2=O)C1 [CBK283345] | 86.8%
58 | O=C1/C(=N\Nc2ccc([N+](=O)[O-])cc2[N+](=O)[O-])c2ccccc2N1CN1CCCCC1 [CBK260926] | 94.4%
59 | O=S(=O)(Nc1cccc(-c2nnn[nH]2)c1)c1ccc(Br)s1 [CBK160377] | 101%
60 | O=C(O)CC/C(=N\Nc1ccc([N+](=O)[O-])cc1)c1ccc(F)cc1 [CBK017075] | 110%
61 | COCCN(Cc1cnn(C)c1)C(=O)Cc1ccccn1 [CBK306576] | 112%
62 | O=C(Nc1cc2ccccc2c(N2CCNCC2)n1)c1ccccc1 [CBK028423T] | 104%
63 | COC(=O)[C@@H]1Cc2ncn(C)c2CN1C(=O)c1ccc(C#N)cc1 [CBK288994] | 76.5%
64 | COc1ccc(C)cc1NC(=O)CSc1nc(C)cc(C(F)(F)F)n1 [CBK270205] | 96%
65 | CN(C)S(=O)(=O)c1cccnc1OCC(O)CNC(C)(C)C (centres unmarked) [CBK058059] | 84.5%
66 | Cc1cccc(N2CCOC3(CCCC3)C2)n1 [CBK304446] | 82.1%

Row | Structure (SMILES) | viability at 28.5 h, 10 µM
67 | CC(C)(C)c1n[nH]c(C2CN(C(=O)CCc3ccco3)CCO2)n1 (centres unmarked) [CBK305204] | 81.5%
68 | Cc1nc2cc(C(=O)N(C)CCN3CCCCC3)ccc2n1C [CBK281854] | 78.3%
69 | COc1ccc2c(-c3cc(N)sn3)c(C)oc2c1 [CBK022260] | 83.8%
70 | Brc1ccc(OCc2ccccc2)c(CNCc2ccccn2)c1 [CBK268340C] | 99.9%
71 | CC(=O)Nc1ccc(S(=O)(=O)NCCCc2ccccc2)cc1 [CBK265488] | 89.8%
72 | O=C(O)c1sc2ncccc2c1NS(=O)(=O)c1cc(Cl)sc1Cl [CBK050650] | 78.2%
73 | Cc1nn(-c2ccccn2)c(C)c1[C@@H]1C=C[C@@H](NC(=O)CCC(=O)O)C1 [CBK289170] | 81.9%
74 | CC(C)(C)N1C(=O)c2ccc(C(=O)NNC(=O)C(C#N)C(=O)c3ccc4c(c3)C(=O)N(C(C)(C)C)C4=O)cc2C1=O (centres unmarked) [CBK268652] | 90.3%
75 | Cn1c(=O)[nH]c(=O)c2c1nc(N1CCOCC1)n2CC(O)COc1ccc(I)cc1 (centres unmarked) [CBK262438] | 111%
76 | CC1(C)C(=O)NCCN1C(=O)Cn1cnc2ccccc21 [CBK281856] | 89.3%
77 | COc1ccc(C(O)Cn2c(=N)n(CCN3CCCCC3)c3ccccc32)cc1 (centres unmarked) [CBK262930C] | 98.8%
78 | Cc1ccc(S(=O)(=O)Nc2ccccc2C(=O)O)cc1[N+](=O)[O-] [CBK042374] | 84.5%
79 | COCCNC(=O)c1ccc(-c2ccccc2CO)nc1N1CCOCC1 [CBK076559] | 97.6%
80 | Nc1nonc1-c1cccnc1 [CBK006120] | 105%
81 | COc1ccc(NC(=O)CCC(=O)N2CCC(C(=O)O)CC2)cc1 [CBK286588] | 100%
82 | Cc1nn2c(-c3cccc(NC(=O)CN4CCOCC4)c3)nnc2c2ccccc12 [CBK268383] | 84.3%
83 | COc1ccccc1CC(C)NC(=O)c1ccnn1C(C)C (centres unmarked) [CBK282595] | 86.9%
84 | COc1cc(Nc2cc(-c3ccc(NC(C)=O)cc3)ncn2)cc(OC)c1OC [CBK090710] | 103%
85 | Nc1ncnc(NCCc2ccc(Cl)cc2)c1[N+](=O)[O-] [CBK267351] | 88.3%
86 | O=C(c1ccc2ncccc2c1)N1CCN(Cc2ccccc2)CC1 [CBK200175] | 99.1%
87 | Cc1c(F)cccc1CN(CC(C)(C)CN)C(=O)Nc1ccc(C(F)(F)F)cc1 [CBK002417C] | 89.5%
88 | Cc1ccc(F)c(S(=O)(=O)NC(C)Cc2ccccn2)c1 (centres unmarked) [CBK281427] | 90.5%

same assay, conditions: human, hela cells, % viability, bulk resorufin, single well

Row | Structure (SMILES) | viability at 28.5 h, 10 µM
89 | O=C(O)COc1c(Cl)cc(/C=C2\C(=O)NC(=S)N(c3ccc(F)cc3)C2=O)cc1Cl [CBK263391] | 107%
